# Measurements taken from PubChem BioAssay (NCI).
#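 Here, GI50 denotes the concentration required for 50% inhibition of growth. TGI: total growth inhibition.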
# Assays:
# Test in all cases: NCI anticancer screen, dose series, 384-well format
# A498 renal = tested on: A498 renal
# A549 NSCLC = tested on: A549 NSCLC
# ACHN renal = tested on: ACHN renal
# BT-549 breast = tested on: BT-549 breast
# CAKI-1 renal = tested on: CAKI-1 renal
# COLO 205 colon = tested on: COLO 205 colon
# DU-145 prostate = tested on: DU-145 prostate
# EKVX NSCLC = tested on: EKVX NSCLC
# HCC-2998 colon = tested on: HCC-2998 colon
# HCT-116 colon = tested on: HCT-116 colon
# HCT-15 colon = tested on: HCT-15 colon
# HL-60(TB) leukemia = tested on: HL-60(TB) leukemia
# HOP-62 NSCLC = tested on: HOP-62 NSCLC
# HOP-92 NSCLC = tested on: HOP-92 NSCLC
# HS 578T breast = tested on: HS 578T breast
# HT29 colon = tested on: HT29 colon
# IGROV1 ovarian = tested on: IGROV1 ovarian
# KM12 colon = tested on: KM12 colon
# LOX IMVI melanoma = tested on: LOX IMVI melanoma
# M14 melanoma = tested on: M14 melanoma
# MALME-3M melanoma = tested on: MALME-3M melanoma
# MCF7 breast = tested on: MCF7 breast
# MDA-MB-231 breast = tested on: MDA-MB-231 breast
# MDA-MB-435 melanoma = tested on: MDA-MB-435 melanoma
# MDA-MB-468 breast = tested on: MDA-MB-468 breast
# MOLT-4 leukemia = tested on: MOLT-4 leukemia
# NCI-H226 lung = tested on: NCI-H226 lung
# NCI-H23 lung = tested on: NCI-H23 lung
# NCI-H322M lung = tested on: NCI-H322M lung
# NCI-H460 NSCLC = tested on: NCI-H460 NSCLC
# NCI-H522 lung = tested on: NCI-H522 lung
# NCI/ADR-RES ovarian = tested on: NCI/ADR-RES ovarian
# OVCAR-3 ovarian = tested on: OVCAR-3 ovarian
# OVCAR-4 ovarian = tested on: OVCAR-4 ovarian
# OVCAR-5 ovarian = tested on: OVCAR-5 ovarian
# OVCAR-8 ovarian = tested on: OVCAR-8 ovarian
# PC-3 prostate = tested on: PC-3 prostate
# RPMI-8226 leukemia = tested on: RPMI-8226 leukemia
# RXF 393 renal = tested on: RXF 393 renal
# SF-268 CNS = tested on: SF-268 CNS
# SF-295 CNS = tested on: SF-295 CNS
# SF-539 CNS = tested on: SF-539 CNS
# SK-MEL-28 melanoma = tested on: SK-MEL-28 melanoma
# SK-MEL-5 melanoma = tested on: SK-MEL-5 melanoma
# SK-OV-3 ovarian = tested on: SK-OV-3 ovarian
# SN12C renal = tested on: SN12C renal
# SNB-19 CNS = tested on: SNB-19 CNS
# SNB-75 CNS = tested on: SNB-75 CNS
# SR leukemia = tested on: SR leukemia
# T-47D breast = tested on: T-47D breast
# TK-10 renal = tested on: TK-10 renal
# U251 glioblastoma = tested on: U251 glioblastoma
# UACC-257 melanoma = tested on: UACC-257 melanoma
# UACC-62 melanoma = tested on: UACC-62 melanoma
smiles,measurement,setting,value
CC(=O)O/N=C1/C(c2c(O)[nH]c3cc(Br)ccc23)=Nc2ccccc21,GI50,A498 renal,182 nM
same,TGI,A498 renal,496 nM
same,GI50,A549 NSCLC,1460 nM
same,TGI,A549 NSCLC,2840 nM
same,GI50,ACHN renal,472 nM
same,TGI,ACHN renal,1660 nM
same,GI50,BT-549 breast,574 nM
same,TGI,BT-549 breast,1910 nM
same,GI50,CAKI-1 renal,675 nM
same,TGI,CAKI-1 renal,1970 nM
same,GI50,COLO 205 colon,1270 nM
same,TGI,COLO 205 colon,2530 nM
same,GI50,DU-145 prostate,1050 nM
same,TGI,DU-145 prostate,2290 nM
same,GI50,EKVX NSCLC,505 nM
same,TGI,EKVX NSCLC,2030 nM
same,GI50,HCC-2998 colon,540 nM
same,TGI,HCC-2998 colon,1980 nM
same,GI50,HCT-116 colon,1030 nM
same,TGI,HCT-116 colon,2230 nM
same,GI50,HCT-15 colon,686 nM
same,TGI,HCT-15 colon,1950 nM
same,GI50,HL-60(TB) leukemia,495 nM
same,TGI,HL-60(TB) leukemia,1150 nM
same,GI50,HOP-62 NSCLC,1070 nM
same,TGI,HOP-62 NSCLC,2260 nM
same,GI50,HOP-92 NSCLC,1250 nM
same,TGI,HOP-92 NSCLC,2650 nM
same,GI50,HS 578T breast,215 nM
same,TGI,HS 578T breast,860 nM
same,GI50,HT29 colon,1460 nM
same,TGI,HT29 colon,2800 nM
same,GI50,IGROV1 ovarian,157 nM
same,TGI,IGROV1 ovarian,1350 nM
same,GI50,KM12 colon,532 nM
same,TGI,KM12 colon,2010 nM
same,GI50,LOX IMVI melanoma,1110 nM
same,TGI,LOX IMVI melanoma,2310 nM
same,GI50,M14 melanoma,1610 nM
same,TGI,M14 melanoma,2970 nM
same,GI50,MALME-3M melanoma,1990 nM
same,TGI,MALME-3M melanoma,4240 nM
same,GI50,MCF7 breast,582 nM
same,TGI,MCF7 breast,2370 nM
same,GI50,MDA-MB-231 breast,1300 nM
same,TGI,MDA-MB-231 breast,2650 nM
same,GI50,MDA-MB-435 melanoma,1340 nM
same,TGI,MDA-MB-435 melanoma,2630 nM
same,GI50,MDA-MB-468 breast,1320 nM
same,TGI,MDA-MB-468 breast,2610 nM
same,GI50,MOLT-4 leukemia,1900 nM
same,TGI,MOLT-4 leukemia,3320 nM
same,GI50,NCI-H226 lung,257 nM
same,TGI,NCI-H226 lung,1080 nM
same,GI50,NCI-H23 lung,1470 nM
same,TGI,NCI-H23 lung,2860 nM
same,GI50,NCI-H322M lung,727 nM
same,TGI,NCI-H322M lung,2010 nM
same,GI50,NCI-H460 NSCLC,798 nM
same,TGI,NCI-H460 NSCLC,2070 nM
same,GI50,NCI-H522 lung,1480 nM
same,TGI,NCI-H522 lung,2810 nM
same,GI50,NCI/ADR-RES ovarian,1240 nM
same,TGI,NCI/ADR-RES ovarian,2520 nM
same,GI50,OVCAR-3 ovarian,186 nM
same,TGI,OVCAR-3 ovarian,946 nM
same,GI50,OVCAR-4 ovarian,1250 nM
same,TGI,OVCAR-4 ovarian,2540 nM
same,GI50,OVCAR-5 ovarian,1980 nM
same,TGI,OVCAR-5 ovarian,3400 nM
same,GI50,OVCAR-8 ovarian,1100 nM
same,TGI,OVCAR-8 ovarian,2310 nM
same,GI50,PC-3 prostate,462 nM
same,TGI,PC-3 prostate,1780 nM
same,GI50,RPMI-8226 leukemia,685 nM
same,TGI,RPMI-8226 leukemia,1860 nM
same,GI50,RXF 393 renal,1010 nM
same,TGI,RXF 393 renal,2220 nM
same,GI50,SF-268 CNS,1050 nM
same,TGI,SF-268 CNS,2250 nM
same,GI50,SF-295 CNS,1000 nM
same,TGI,SF-295 CNS,2320 nM
same,GI50,SF-539 CNS,505 nM
same,TGI,SF-539 CNS,1690 nM
same,GI50,SK-MEL-28 melanoma,1670 nM
same,TGI,SK-MEL-28 melanoma,3070 nM
same,GI50,SK-MEL-5 melanoma,312 nM
same,TGI,SK-MEL-5 melanoma,1660 nM
same,GI50,SK-OV-3 ovarian,275 nM
same,TGI,SK-OV-3 ovarian,1330 nM
same,GI50,SN12C renal,53.8 nM
same,TGI,SN12C renal,710 nM
same,GI50,SNB-19 CNS,1470 nM
same,TGI,SNB-19 CNS,2870 nM
same,GI50,SNB-75 CNS,554 nM
same,TGI,SNB-75 CNS,2040 nM
same,GI50,SR leukemia,1140 nM
same,TGI,SR leukemia,2350 nM
same,GI50,T-47D breast,1760 nM
same,TGI,T-47D breast,3230 nM
same,GI50,TK-10 renal,356 nM
same,TGI,TK-10 renal,1590 nM
same,GI50,U251 glioblastoma,1080 nM
same,TGI,U251 glioblastoma,2280 nM
same,GI50,UACC-257 melanoma,1720 nM
same,TGI,UACC-257 melanoma,3100 nM
same,GI50,UACC-62 melanoma,636 nM
same,TGI,UACC-62 melanoma,1890 nM
